Measurements taken from US20210078958A1, “QUINAZOLINE DERIVATIVE AND USE THEREOF” (MEDSHINE DISCOVERY INC., priority 2017, published 2021).
pIC50: −log10 of the molar value.

Legend:
[1] = molecular target: HER1 (ErbB1) (Homo sapiens, UniProt P00533); test: in vitro enzyme activity, HER1 (ErbB1); assay type: biochemical; conditions: human ErbB1, [γ-33P]ATP, poly(Glu, Tyr) substrate
Description: The purpose of this assay is to detect the in vitro inhibitory activity of compounds on HER1 (ErbB1), HER2 (ErbB2), and HER4 (ErbB4). The enzymes used in this assay are human ErbB1, ErbB2 and ErbB4. Eurofins Pharma Discovery Service provided the method for activity detection.
Steps and Method of the Assay (96-Well Plate):
A buffer solution of the test compounds in a dilution of 5-fold (5 μL), polypeptide substrate poly(Glu, Tyr) (4:1) (2.5 μL), ErbB (4-20 ng, 2.5 μL), MnCl2 (50 mM, 1.25 μL), dH2O (3.75 μL), and [γ-^33P]ATP (10 μL) were added, and incubated at 30° C. for 10 minutes. The reaction was terminated by adding 3% phosphoric acid. 10 μL of the sample was taken and transferred to Filtermate A. The filter disc was washed 3 times with 75 mM phosphoric acid and once with methanol. The filter disc was transferred to a sealed plastic bag and the scintillation mixture (4 mL) was added. The intensity of the emitted photon was detected by a scintillation luminescence counter. The CPM (times/min) of the enzyme sample was compared with the CPM of the internal control sample. The level of photon intensity reflected the degree of the tyrosine kinase activity.

[2] = test system: OE21 cell; test: inhibitory activity on cell proliferation (Cell-Titer-Glo), OE21; assay type: cell-based; conditions: Homo sapiens, OE21, 72 h, incubation for 3 days
Description: (§1) Purpose of the assay: to detect the inhibitory activity of the test compounds on cell proliferation.
(§2) Principle of the assay: the luciferase in a Cell-Titer-Glo reagent produces oxidized luciferin with luciferin, oxygen and ATP as reaction substrates, and releases energy in the form of light. Since the luciferase reaction requires ATP, the total amount of light generated by the reaction is proportional to the total amount of ATP that reflects cell viability.
(§3) Cell Titer-Glo cell viability assay kit with luminescence (Promega #G7573)
(§4) According to the schematic diagram of the cell seed plate, cells were seeded in a 384- or 96-well plate at a density of 1000 cells per well and 25 μL per well, and 25 μL of PBS was added to the wells near edge of the place where no cells were seeded.
(§5) (1) The stock solution of the compounds has a concentration of 10 mM, and the compounds were diluted with DMSO to an initial concentration of 4 mM. The compounds were added to the plate with stock solution of compounds, 9 μL per well.
(§6) (2) The compounds were diluted with an ECHO liquid workstation, where 125 nL of compounds were added to each well of the cell plate, 125 nL of DMSO was added to each of the cell well in columns 2 and 23, and 125 nL of DMSO was added to each PBS well in columns 1 and 24.
(§7) 2.3 After addition of the compounds, the cell plate was centrifuged at 1000 rpm for 1 min, and then placed in a 37° C., 5% CO2 incubator for incubation for 3 days.
(§8) The cell plate was taken out from the incubator and equilibrated at room temperature for 30 minutes. 25 μL of Cell-Titer-Glo reagent was added to each well, shaken for one minute to allow well mixed, and centrifuged at 1000 rpm for 1 minute. After 10 minutes, the plate was read on PerkinElmer Envision, and the […] reading time was set to 0.2 second.

[3] = test system: NCI-N87 cell; test: inhibitory activity on cell proliferation (Cell-Titer-Glo), NCI-N87; assay type: cell-based; conditions: Homo sapiens, NCI-N87, 72 h; incubation for 3 days, Cell-Titer-Glo
Description: as §1, §2, §3, §4, §5, §6, §7, §8

[4] = test system: BT-474 cell; test: inhibitory activity on cell proliferation (Cell-Titer-Glo), BT-474; assay type: cell-based; conditions: Homo sapiens, BT-474, 72 h; incubation for 3 days, Cell-Titer-Glo
Description: as §1, §2, §3, §4, §5, §6, §7, §8

[5] = test system: subcutaneous xenograft tumor of human gastric cancer NCI-N87 cells; test: Assay Example 5: in vivo pharmacodynamics, NCI-N87 xenograft; design: species or system BALB/c nude mouse; conditions: 0.5 mg/kg
Description: Purpose of the assay: to evaluate the in vivo efficacy of test compounds disclosed herein on subcutaneous xenograft tumor of human gastric cancer NCI-N87 cells in a BALB/c nude mouse model.
Animals of the assay: female BALB/c nude mice, 6-8 weeks old, weighing 18-22 grams; supplier: shanghai sippr bk laboratory animals Ltd.
Human gastric cancer NCI-N87 cells were cultured in monolayer in vitro. The culture conditions were RPMI-1640 medium plus 10% fetal bovine serum, 100 U/mL penicillin, 100 μg/mL streptomycin, 37° C., 5% CO2. The passaging was performed by conventional digestion with trypsin-EDTA twice a week. When the cell saturation was 80%-90%, the cells were collected, counted and inoculated.
0.2 mL (10×10^6) of NCI-N87 cells (PBS+Matrigel, 1:1) were inoculated subcutaneously on the right back of each mouse. When the average tumor volume reached 156 mm^3, administration to each group was started.
The test compounds were formulated into a 0.05 mg/mL clear solution in the solvents of 10% NMP (N-methylpyrrolidone)+10% ethylene glycol stearate+80% water.
The assay index is to investigate whether tumor growth is inhibited, delayed or cured. Tumor diameter was measured twice a week with a vernier caliper. The calculation formula of tumor volume is: V=0.5a×b^2, wherein a and b represent the long and short diameters of tumor, respectively.
The antitumor efficacy of the compounds were evaluated by TGI (%) or tumor proliferation rate T/C (%). TGI (%) reflects the tumor growth inhibition rate. TGI (%) is calculated as follows: TGI (%)=[1−(average tumor volume at the end of administration for a certain treatment group−average tumor volume at the beginning of administration for this treatment group)/(average tumor volume at the end of treatment for a solvent control group−average tumor volume at the beginning of administration for this solvent control group)]×100%.
Tumor proliferation rate T/C (%): the calculation formula is as follows: T/C (%)=average tumor volume at the end of administration for a certain treatment group/average tumor volume at the end of treatment for the solvent control group×100%.
Statistical analysis included the mean and standard error (SEM) of tumor volume at each time point in each group (See Table 5-1 for specific data). […] The comparison between two groups was analyzed by T-test, and the comparison among three or more groups was analyzed by one-way ANOVA. […] All data analysis was carried out with SPSS 17.0. p<0.05 was considered a significant difference.

Sequence of HER1 (ErbB1) (P00533 25-1210): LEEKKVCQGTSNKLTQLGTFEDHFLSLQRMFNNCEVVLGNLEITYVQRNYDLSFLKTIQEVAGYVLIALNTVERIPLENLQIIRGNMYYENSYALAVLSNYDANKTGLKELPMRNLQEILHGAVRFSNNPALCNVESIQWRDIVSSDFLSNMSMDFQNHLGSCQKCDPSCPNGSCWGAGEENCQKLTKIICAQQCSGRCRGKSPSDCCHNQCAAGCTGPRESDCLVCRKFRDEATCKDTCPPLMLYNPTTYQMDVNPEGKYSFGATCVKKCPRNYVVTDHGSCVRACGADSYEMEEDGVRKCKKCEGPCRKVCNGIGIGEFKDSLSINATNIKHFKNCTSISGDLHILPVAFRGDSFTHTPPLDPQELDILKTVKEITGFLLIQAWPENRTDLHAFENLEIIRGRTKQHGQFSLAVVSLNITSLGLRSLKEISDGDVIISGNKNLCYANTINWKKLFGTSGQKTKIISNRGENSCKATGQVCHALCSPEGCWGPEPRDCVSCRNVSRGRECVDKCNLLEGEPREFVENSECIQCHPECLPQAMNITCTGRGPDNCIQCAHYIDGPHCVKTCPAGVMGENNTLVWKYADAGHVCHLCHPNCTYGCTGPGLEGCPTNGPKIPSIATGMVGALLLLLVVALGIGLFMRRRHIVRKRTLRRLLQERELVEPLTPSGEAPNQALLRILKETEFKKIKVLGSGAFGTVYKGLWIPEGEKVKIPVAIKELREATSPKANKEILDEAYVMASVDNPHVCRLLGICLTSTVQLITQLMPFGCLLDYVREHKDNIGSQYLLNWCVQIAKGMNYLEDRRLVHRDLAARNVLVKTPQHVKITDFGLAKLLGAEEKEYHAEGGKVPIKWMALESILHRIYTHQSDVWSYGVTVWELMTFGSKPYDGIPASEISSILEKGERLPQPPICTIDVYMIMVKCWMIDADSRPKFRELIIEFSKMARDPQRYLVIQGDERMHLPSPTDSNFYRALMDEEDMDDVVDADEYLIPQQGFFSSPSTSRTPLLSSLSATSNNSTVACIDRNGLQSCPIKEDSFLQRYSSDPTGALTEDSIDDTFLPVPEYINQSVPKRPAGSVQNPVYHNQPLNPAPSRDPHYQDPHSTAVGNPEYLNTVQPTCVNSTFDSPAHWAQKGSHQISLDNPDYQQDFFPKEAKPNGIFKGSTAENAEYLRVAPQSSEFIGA

SMILES | pIC50 [1] | pIC50 [2] | pIC50 [3] | pIC50 [4] | Tumor volume (mm^3) (Day 21) ([5]; NCI-N87 xenograft, Mean + SEM) | T/C (%) ([5]; day 21) | TGI (%) ([5]; day 21)
C=CC(=O)N1[C@@H]2CC[C@H]1C[C@H](Oc1cc3c(Nc4ccc(Cl)c(Cl)c4F)ncnc3cc1OC)C2 [Example 8] | 8.22 | 9.33 | 9.55 | 9.41 |  |  | 
C=CC(=O)N1[C@@H]2CC[C@H]1C[C@H](Nc1cc3c(Nc4ccc(Cl)c(Cl)c4F)ncnc3cc1OC)C2 [Example 38] | 8.10 | 9.28 | 9.34 |  | 63 ± 10 mm^3 | 10.69% | 119.41%
